This is an account of results in PMC12635456, “In Vivo Inhibition of Dipeptidyl Peptidase 4 and Neprilysin Activity Enables Measurement of GLP-1 Secretion in Male Rats” (Journal of the Endocrine Society, 2025).

Read-outs that look alike come from different tables or passages of the source.

For data set [1] the following is noted: cited from earlier work. From the text: Glucagon-like peptide-1 (GLP-1), secreted from enteroendocrine cells in the gut, enhances glucose-stimulated insulin secretion and reduces appetite.
The test system of data set [2] is GLP-1 secretion. The data set is described as follows: Oral glucose challenge without inhibitor pretreatment (GLP-1 by RIA and ELISAs). Conditions: oral glucose 2 g/kg, no inhibitors.
Description: In these experiments it was possible to collect relatively large blood samples (∼500 µL), allowing measurements with a single site RIA directed at the C-terminus of the molecule. The samples were collected at time point 0, 15, 30, and 60 minutes after glucose challenge and treated as already described.
Net area under the curve (nAUC) was calculated using the trapezoid rule; baseline was set to the first data point and peaks above and below the baseline were considered. P < .05 was considered significant. Data are shown as mean ± SEM.

For `CC[C@H](C)[C@H](NC(=O)[C@H](Cc1ccccc1)NC(=O)[C@H](CCC(=O)O)NC(=O)[C@H](CCCCN)NC(=O)[C@H](C)NC(=O)[C@H](C)NC(=O)[C@H](CCC(N)=O)NC(=O)CNC(=O)[C@H](CCC(=O)O)NC(=O)[C@H](CC(C)C)NC(=O)[C@H](Cc1ccc(O)cc1)NC(=O)[C@H](CO)NC(=O)[C@H](CO)NC(=O)[C@@H](NC(=O)[C@H](CC(=O)O)NC(=O)[C@H](CO)NC(=O)[C@@H](NC(=O)[C@H](Cc1ccccc1)NC(=O)[C@@H](NC(=O)CNC(=O)[C@H](CCC(=O)O)NC(=O)[C@H](C)NC(=O)[C@@H](N)Cc1c[nH]cn1)[C@@H](C)O)[C@@H](C)O)C(C)C)C(=O)N[C@@H](C)C(=O)N[C@@H](Cc1c[nH]c2ccccc12)C(=O)N[C@@H](CC(C)C)C(=O)N[C@H](C(=O)N[C@@H](CCCCN)C(=O)NCC(=O)N[C@@H](CCCNC(=N)N)C(N)=O)C(C)C` [GLP-1(7-36)NH2], the “Half-life in the circulation” value in data set [1] (humans), in data set [1] (mice) and in data set [1] (rats) was “a few minutes” in each case.

As to `OC[C@H]1OC(O)[C@H](O)[C@@H](O)[C@@H]1O` (some centres unmarked) [glucose], in data set [2], the “Increase in GLP-1 concentration 15 minutes following glucose, C-terminal RIA” value is about 15 pmol/L and the “Increase in GLP-1 concentration 15 minutes following glucose, Mercodia total ELISA” value is “around 5 pmol/L”. The “Total GLP-1 plasma concentration 15 minutes after glucose, RIA” value in data set [2] (in-house C-terminal RIA 89390, mean ± SEM, n = 5-6, P < .02 vs baseline) is reported as 43.1 ± 3.7 pmol/L. In data set [2] (mean ± SEM, n = 5-6, P < .008 vs baseline), the “Intact GLP-1 plasma concentration 15 minutes after glucose, Alpco ELISA” value was found to be 0.8 ± 0.07 pmol/L. Moreover, the “Total GLP-1 plasma concentration 15 minutes after glucose, Mercodia ELISA” value in data set [2] (mean ± SEM, n = 5-6, P < .02 vs baseline) is listed as 10.5 ± 1.8 pmol/L.
